Data: patent US20220264883A1, “IMIDAZOTHIAZOLE COMPOUNDS AND METHODS FOR TREATING PLANT NEMATODE INFECTIONS” (The Governing Council of the University of Toronto, priority 2019, published 2022)
Several values for one entry are separate records, joined by “and”; a condition that tells them apart may be missing. Equal entries are not always repeated. Where two headings read alike, the source gives them in different places.

How the values were obtained:
[1] = system: P. pacificus; experiment: Pristionchus pacificus dose-response experiments; type: in vivo; settings: larvae, animals reaching L3 stage or older counted
Experimental: Dose-response assays were carried out exactly as those described above for the C. elegans L1 dose-response experiments. However, the compounds of the application-induced phenotypes in P. pacificus, even at the highest concentrations, were a combination of lethality and larval arrest. Therefore, for the Pristionchus dose-response assays, the number of animals that reached the L3 stage or older was quantified, as opposed to the number of viable worms. The arrested animals appeared very sick, and would likely die before reaching reproductive adulthood. Therefore, this arrested phenotype was considered to be practically analogous to lethality. The “relative viability” values were calculated the same way as for the C. elegans dose-response experiments, and were averaged across at least three biological replicates. LC50 values were calculated in the same manner as for the C. elegans dose-response assays.

[2] = system: C. elegans; experiment: C. elegans viability at a single concentration (Table 3); type: in vivo; settings: Caenorhabditis elegans; 100 μM
Experimental: (§1) Forty microliters of an HB101 bacterial suspension in liquid NGM (see above) was added to each well of a 96-well flat-bottom culture plate, after which approximately 25 synchronized L1 worms, in 10 μl of M9 buffer (see ref. 59 for the recipe), were added to each well. The synchronized L1 worms were obtained from an embryo preparation performed the previous day (see ref. 59 for the protocol). For the L1 assays, 0.5 μl of chemical solution (or DMSO alone) was immediately added to the wells using a multichannel pipette, the final DMSO concentration is 1% (v/v). The worms were incubated for 3 days at 20° C. and the number of viable animals was counted. […] Although the counts were performed after 3 days of incubation in the chemical, it was noted that the L1s were dead within 24 hours of the addition of the chemicals. For the L2/L3 assays, the worms were incubated in the absence of chemical for 1 day at 20° C. until they reached the L2/L3 stage, at which point chemical was added as described above. The worms were then allowed to incubate for 2 days at 20° C. and the number of viable animals was counted as described for the L1 assay. For the L4 assays, the worms were incubated for 2 days at 20° C. before the addition of chemicals. The L4-stage worms were then incubated in chemical for an additional day before quantifying the number of viable animals. The adult assays were performed the same way as the L4 assays, however HT115 E. coli carrying the empty dsRNA expressing vector L4440 was used in place of HB101 and the worms were cultured at 25° C. as opposed to 20° C. for the entirety of the experiment. The HT115 suspension was made by concentrating a bacterial culture, with an OD600 of ˜ 0.8, five-fold with liquid NGM containing 1 mM IPTG and 100 μg/ml carbenicillin. The HT115 cells were induced with 1 mM IPTG for one hour before concentrating with NGM.
The ability of exemplary compounds of the application to kill C. elegans at 100 μM (except for compound If which was tested at 50 μM) and to affect the mobility of M. chitwoodi at 45 μM was tested as described above for M. incognita infective juveniles. Percent mobility was measured after 2 days of chronic exposure to test compounds (Table 3).

[3] = system: M. incognita infective juveniles; experiment: Meloidogyne incognita dose-response experiments (infective J2 juveniles, FIG. 2); type: in vivo; settings: for nematicidal activity on M. incognita infective juveniles: 5, 15, 45 micromolar, third day after water rinse
Experimental: M. incognita (Kofoid & White) Chitwood Race 1 (originally isolated in Maryland) was used for all experiments, and were maintained on pepper (Capsicum annuum L.) cv. PA-136 in a greenhouse as previously described^64. Infective J2 juveniles were collected as described in ref. 65. The microwell dose-response experiments were carried out similarly to previously described protocols^64, 66. In brief, 100 J2 s, in 10 μL of deionized water, were added to the wells of 96-well polystyrene plates, after which 190 μL of deionized water containing dissolved chemical, or DMSO alone, was added to each well. The final concentration of DMSO in each well was 0.5% (v/v), except for the water only control which contained no DMSO and no added chemicals. The final concentrations of the chemicals for each dose-response experiment were 5, 15, and 45 μM. The wells were covered with a plastic adhesive strip, and the lids of the plates were sealed with parafilm. The plates were incubated at 25° C. The fraction of active worms was quantified by counting the number of mobile and immobile worms after 1 and 2 days of incubation, and then dividing the number of mobile worms by the total number of worms in the well. After 2 days of incubation, the chemicals were removed and replaced with deionized water (i.e. the water rinse) and the fraction of active worms was quantified 1 day later. A failure of the worms to recover after rinsing with water is consistent with them having been killed by the chemical treatment. Four technical replicates were performed for each treatment.

[4] = system: C. elegans; experiment: C. elegans dose-response experiments (wild type; embryo to adult and dauer stages); type: in vivo; settings: for LC50: Caenorhabditis elegans
Experimental: as §1
For the dose-response experiments with embryos, eggs obtained from an embryo preparation were immediately aliquoted into 96-well plate wells. Approximately 25 embryos in 50 μl of M9 buffer were added to each well, and 0.5 μl volumes of the chemicals were added via multichannel, in the same way as for the L1 dose-response assays described above. The plates were incubated at 20° C. for 1 day, at which point the number of hatched eggs was counted.
For the dauer dose-response assays, the CB1370 strain carrying the temperature sensitive daf-2(e1370) allele was used. When grown at the non-permissive temperature of 25° C. these mutants will enter dauer constitutively. The assay was performed similarly to the […] described above, however the L1 worms were allowed to grow for 2 days at 25° C. until they became dauer larvae. At this point chemical was added and the dauers were incubated for 2 days at 25° C. before quantitation of viability. After 2 days, all of the dauer larvae, including the DMSO controls, were relatively motionless and appeared as rigid rods. To activate the worms, 1 μl of 1 N sodium hydroxide was added to each well and the plates were agitated vigorously before counting. This was done one well at a time.
At least three biological replicates were performed for each dose-response assay. For each biological replicate, two technical replicates were performed and the numbers of viable animals for each technical replicate were combined (i.e. ˜50 worms assayed per concentration). The number of viable worms at each concentration was divided by the corresponding DMSO control value to give the “relative viability” for each concentration. The “relative viability” values were then averaged across the biological replicates. LC50 values were calculated using Graphpad Prism. The concentration values were log-transformed and a four-parameter logistic curve was fitted to the dose-response data by non-linear regression, from which the LC50 values were extracted.

[5] = system: C. elegans; experiment: C. elegans minimum lethal concentration dose-response; type: in vivo, Caenorhabditis elegans; settings: Caenorhabditis elegans, C. elegans viability
Experimental: as §1
Compounds Ia to Im, dose-response assays were performed with C. elegans. 8 of the compounds killed C. elegans with minimum lethal concentrations less than or equal to 100 μM (Table 6). Compounds Ia, Ic, and Ij were the most potently lethal nematicides in this assay, having minimum lethal concentrations of 6.25 μM and below. The positive control nematicide tioxazafen killed nematodes at 3.13 μM and above.

[6] = 72 h, L1 worms, 3 days at 20° C., read-out: C. elegans LC50
[7] = wild-type, resistance none, read-out: LC50 in strain N2

SMILES	LC50 [1] [µM]	viability at 100 µM [2] [%]	nematicidal activity on M. incognita infective juveniles [3]	inhibitory effects on worm activity compared with tioxazafen ([3]; each time point, every concentration tested)	nematode lethality ([3]; lowest concentration assayed (5 micromolar)) [%]	LC50 [4, 6] [µM]	LC50 [4, 7] [µM]	killing of each developmental stage of C. elegans from embryo to adult ([4]; FIG. 1B)	killing of the non-reproductive dauer stage of C. elegans ([4]; daf-2(e1370) dauers, FIG. 1B)	minimal effective concentration [5]
Clc1ccc(-c2cn3ccsc3n2)cc1 [Ia]	6.1	0	demonstrated nematicidal activity at one or more concentrations	outperformed the commercial nematicide tioxazafen	100	6.9	6.9	micromolar potency	can also kill the non-reproductive dauer stage	1.5 µg/mL
Fc1ccc(-c2cn3ccsc3n2)cc1 [Ib]	14.7	0	demonstrated nematicidal activity at one or more concentrations	–	–	29.7	29.7	–	–	25 µM and 5.5 µg/mL
Cc1csc2nc(-c3ccccc3)cn12 [Compound Ie]	45.5	100	–	–	–	> 100	–	–	–	> 100 µM and > 21.4 µg/mL
